Earlier results on one molecule are cited in US10029020B2, “Fullerene compositions” (UNIVERSITEIT GENT, priority 2015, dated 2018).

One data set relates to rats. The following applies: regular administration; Moussa et al., Biomaterials 2012.

For `c12c3c4c5c1c1c6c7c2c2c8c3c3c9c4c4c%10c5c5c1c1c6c6c%11c7c2c2c7c8c3c3c8c9c4c4c9c%10c5c5c1c1c6c6c%11c2c2c7c3c3c8c4c4c9c5c1c1c6c2c3c41` [Polymer C60, buckminsterfullerene (C60)], the water solubility is recorded as 10^−8 ng/L. The lifespan of rats result in the data set with rats was “doubled”.
